Patent publication US20040097594A1 (priority 1998, published 2004)
Where two headings read alike, the source gives them in different places.

Key:
HIV-1 protease = HIV-1 protease (Human immunodeficiency virus type 1 group M subtype B, UniProt P04585); test: biochemical
HIV-1 (strain IIIB) = test: microbe, parasite or virus in culture; format: cell-based; conditions: lower line of each compound's entry, read-out: IC50 (MT-4 cells)
[1] = HIV-1 protease, upper line of each compound's entry, read-out: Ki (enzyme)
[2] = Human immunodeficiency virus 1, IIIB, MT4, 120 h, […]
[3] = Human immunodeficiency virus 1, 120 h, MT4 cells infected with HIV-1 strain IIIB, 5 days

Row | Structure (SMILES) | Ki (HIV-1 protease; [1]) | IC50 (HIV-1 (strain IIIB); [2]) | IC50 (HIV-1 (strain IIIB); [3]) | Ki (HIV-1 protease)
1 | CC(C)Oc1cccc(S(=O)(=O)N(C[C@@H](O)[C@H](Cc2ccccc2)NC(=O)OC2CO[C@H]3OCC[C@@H]23)OC2CCCC2)c1 (stereo partly drawn) [Compound 142, (3R,3aS,6aR)hexahydrofuro[2,3-b]furan-3-yl N-((1S,2R)-1-benzyl-3-(cyclopentyloxy)[(3-isopropoxyphenyl)sulfonyl]amino-2-hydroxypropyl)carbamate] | < 1 nM | 100 to 500 nM | – | –
2 | CNC(=O)CNC(=O)NCCNc1cccc(S(=O)(=O)N(CC(O)C(Cc2ccccc2)NC(=O)OC2COC3OCCC23)OC2CCCC2)c1 [Example 167, (3R,3aS,6aR)hexahydrofuro[2,3-b]furan-3-yl N-[(1S,2R)-1-benzyl-3-((cyclopentyloxy)[3-([(2-[methylamino]-2-oxoethylamino)carbonylamino]ethylamino)phenyl]sulfonylamino)-2-hydroxypropyl]carbamate and (3S,3aR,6aS)hexahydrofuro[2,3-b]furan-3-yl N-[(1S,2R)-1-benzyl-3-((cyclopentyloxy)[3-([2-[methylamino)-2-oxoethylamino)carbonylamino]ethylamino)phenyl]sulfonylamino)-2-hydroxypropyl]carbamate] | < 1 nM | – | 100 to 500 nM | –
3 | CC(C)(C)OC(=O)N[C@@H](Cc1ccccc1)[C@H](O)CN(OC1CCCC1)S(=O)(=O)c1ccc2[nH]c(NC(=O)N3CCOCC3)nc2c1 [Compound 8] | < 1 nM | – | 500 to 1000 nM | –
4 | CNc1cccc(S(=O)(=O)N(C[C@@H](O)[C@H](Cc2ccccc2)NC(=O)O[C@H]2CO[C@H]3OCC[C@H]32)OC2CCCC2)c1 [Compound 45, (3R,3aS,6aR)hexahydrofuro[2,3-b]furan-3-yl N-(1S,2R)-3-[[(3-N-methylaminophenyl)sulfonyl](cyclopentyloxy)amino]-1-benzyl-2-hydroxypropylcarbamate] | < 1 nM | – | ≤ 100 nM | –
5 | COc1ccc(S(=O)(=O)N(C[C@@H](O)[C@H](Cc2ccccc2)NC(=O)OC2COCOC2)OC2CCOCC2)cc1 [Compound 74, 1,3-dioxan-5-yl N-(1S,2R)-1-benzyl-2-hydroxy-3-[[(4-methoxyphenyl)sulfonyl](tetrahydro-2H-pyran-4-yloxy)amino]propylcarbamate] | < 1 nM | – | ≤ 100 nM | –
6 | CONC(=O)CNc1cccc(S(=O)(=O)N(CC(O)C(Cc2ccccc2)NC(=O)OC2COC3OCCC23)OC2CCCC2)c1 (mixture of isomers) [Example 168, (3R,3aS,6aR)hexahydrofuro[2,3-b]furan-3-yl N-[(1S,2R)-1-benzyl-3-((cyclopentyloxy)[3-(2-[methoxyamino]-2-oxoethylamino)phenyl]sulfonylamino)-2-hydroxypropyl]carbamate and (3S,3aR,6aS)hexahydrofuro[2,3-b]furan-3-yl N-[(1S,2R)-1-benzyl-3-((cyclopentyloxy)[3-(2-[methoxyamino]-2-oxoethylamino)phenyl]sulfonylamino)-2-hydroxypropyl]carbamate] | < 1 nM | – | ≤ 100 nM | –
7 | Nc1cccc(S(=O)(=O)N(C[C@@H](O)[C@H](Cc2ccccc2)NC(=O)O[C@H]2CO[C@H]3OCC[C@H]32)OC2CCCCC2)c1 [Compound 154, (3R,3aS,6aR)hexahydrofuro[2,3-b]furan-3-yl(1S,2R)-3-[[(3-aminophenyl)sulfonyl](cyclohexyloxy)amino]-1-benzyl-2-hydroxypropylcarbamate] | < 1 nM | – | ≤ 100 nM | –
8 | O=C(N[C@@H](Cc1ccccc1)[C@H](O)CN(OC1CCOCC1)S(=O)(=O)c1ccc2c(c1)OCO2)O[C@H]1CO[C@H]2OCC[C@H]21 [Compound 151, (3R,3aS,6aR)hexahydrofuro[2,3-b]furan-3-yl 3-[(1,3-benzodioxol-5-ylsulfonyl)(tetrahydro-2H-pyran-4-yloxy)amino]-1-benzyl-2-hydroxypropylcarbamate] | < 1 nM | ≤ 100 nM | – | –
9 | COc1ccc(S(=O)(=O)N(C[C@@H](O)[C@H](Cc2ccccc2)NC(=O)OC2CO[C@H]3OCC[C@@H]23)OCC(C)C)cc1 (stereo partly drawn) [Compound 145, (3R,3aS,6aR)hexahydrofuro[2,3-b]furan-3-yl N-((1S,2R)-1-benzyl-2-hydroxy-3-isobutoxy[(4-methoxyphenyl)sulfonyl]aminopropyl)carbamate] | – | – | ≤ 100 nM | < 1 nM
10 | CCC(CC)ON(C[C@@H](O)[C@H](Cc1ccccc1)NC(=O)O[C@H]1CO[C@H]2OCC[C@H]21)S(=O)(=O)c1ccc(N)cc1 [Example 163, (3R,3aS,6aR)hexahydrofuro[2,3-b]furan-3-yl(1S,2R)-3-[[(4-aminophenyl)sulfonyl](1-ethylpropoxy)amino]-1-benzyl-2-hydroxypropylcarbamate] | < 1 nM | – | ≤ 100 nM | –
11 | CS(=O)(=O)Nc1nc2cc(S(=O)(=O)N(C[C@@H](O)[C@H](Cc3ccccc3)NC(=O)O[C@@H]3CO[C@@H]4OCC[C@@H]43)OC3CCCC3)ccc2[nH]1 [Compound 39, (3S,3aR,6aS)Hexahydrofuro[2,3-b]furan-3-yl-N-((1S,2R)-1-benzyl-3-(cyclopentyloxy)(2-[(methylsulfonyl)amino]benzimidazol-5-ylsulfonyl)amino-2-hydroxypropyl)carbamate] | < 1 nM | – | 100 to 500 nM | –
12 | NC(=O)C[C@H](NC(=O)c1ccc2ccccc2n1)C(=O)N[C@@H](Cc1ccccc1)[C@H](O)CN(OC1CCCC1)S(=O)(=O)c1cccc(N)c1 [Compound 49, (2S)-N^1-(1S,2R)-3-[[(3-aminophenyl)sulfonyl](cyclopentyloxy)amino]-1-benzyl-2-hydroxypropyl-2-[(2-quinolinylcarbonyl)amino]butanediamide] | < 1 nM | – | ≤ 100 nM | –
13 | O=C(N[C@@H](Cc1ccccc1)[C@H](O)CN(OC1CCCC1)S(=O)(=O)c1ccc2cn[nH]c2c1)OC1COCOC1 [Compound 60, 1,3-Dioxan-5-yl N-(1S,2R)-1-benzyl-3-[(cyclopentyloxy)(1H-indazol-6-ylsulfonyl)amino]-2-hydroxypropylcarbamate] | < 1 nM | – | 100 to 500 nM | –
14 | O=C(N[C@@H](Cc1ccccc1)[C@H](O)CN(OC1CCCC1)S(=O)(=O)c1cccc(OCCO)c1)O[C@H]1CO[C@H]2OCC[C@H]21 [Compound 97, (3R,3aS,6aR)hexahydrofuro[2,3-b]furan-3-yl N-[(1S,2R)-1-benzyl-3-((cyclopentyloxy) [3-(2-hydroxyethoxy)phenyl]sulfonylamino)-2-hydroxypropyl]carbamate] | < 1 nM | – | ≤ 100 nM | –
15 | CC(=O)Nc1nc2ccc(S(=O)(=O)N(C[C@@H](O)[C@H](Cc3ccccc3)NC(=O)OC3COCOC3)OC3CCCC3)cc2s1 [Compound 114] | < 1 nM | – | ≤ 100 nM | –
16 | CC(C)(C)OC(=O)N[C@@H](Cc1ccccc1)[C@H](O)CN(OC1CCCC1)S(=O)(=O)c1ccc2nc(N)[nH]c2c1 [Compound 106, Tert-butyl N-(1S,2R)-1-benzyl-3-[(cyclopentyloxy)(2-amino-1H-benzimidazol-5-ylsulfonyl)amino]-2-hydroxypropylcarbamate] | < 1 nM | – | 100 to 500 nM | –
17 | COc1ccc(S(=O)(=O)N(C[C@@H](O)[C@H](Cc2ccccc2)NC(=O)OC2CO[C@H]3OCC[C@@H]23)OC2CCCC2)cc1OC (stereo partly drawn) [Compound 140, (3R,3aS,6aR)hexahydrofuro[2,3-b]furan-3-yl N-((1S, 2R)-1-benzyl-3-(cyclopentyloxy)[(3,4-dimethoxyphenyl)sulfonyl]amino-2-hydroxypropyl)carbamate] | < 1 nM | – | ≤ 100 nM | –
18 | CC(C)(C)ON(C[C@@H](O)[C@H](Cc1ccccc1)NC(=O)O[C@H]1CCOC1)S(=O)(=O)c1ccccc1 [Compound 111, (3S) Tetrahydro-3-furanyl-N-(1S,2R)-1-benzyl-3-(tertbutyloxy)[(phenyl)sulfonyl]amino-2-hydroxypropylcarbamate] | 1 to 10 nM | – | > 1000 nM | –
19 | Nc1n[nH]c2ccc(S(=O)(=O)N(C[C@@H](O)[C@H](Cc3ccccc3)NC(=O)O[C@H]3CO[C@H]4OCC[C@H]43)OC3CCCC3)cc12 [Compound 108, (3R,3aS,6aR)Hexahydrofuro[2,3-b]furan-3-yl N-(1S,2R)-1-benzyl-3-[(cyclopentyloxy) (3-aminoindazole-5-ylsulfonyl)amino]-2-hydroxypropylcarbamate] | 10 to 100 nM | – | > 500 nM | –
20 | COc1ccc(S(=O)(=O)N(C[C@@H](O)[C@H](Cc2ccccc2)NC(=O)OC(C)(C)C)OC(C)C)cc1 [Compound 6] | – | – | > 1000 nM | 10 to 100 nM
21 | CCC(C)ON(C[C@@H](O)[C@H](Cc1ccccc1)NC(=O)OC(C)(C)C)S(=O)(=O)c1ccc(OC)cc1 (stereo partly drawn) [Compound 15, tert-butyl N-((1S,2R)-1-benzyl-3-sec-butoxy[(4-methoxyphenyl)sulfonyl]amino-2-hydroxypropyl)carbamate] | 1 to 10 nM | – | > 1000 nM | –
22 | O=C(N[C@@H](Cc1ccccc1)[C@H](O)CN(OC1CCCC1)S(=O)(=O)c1ccc2cn[nH]c2c1)OC1CO[C@H]2OCC[C@@H]12 (stereo partly drawn) [Compound 59, (3aS,6aR)Hexahydro[2,3-b]furan-3-yl N-(1S,2R)-1-benzyl-3-[(cyclopentyloxy)(1H-indazol-6-ylsulfonyl)amino]-2-hydroxypropylcarbamate] | < 1 nM | – | ≤ 100 nM | –
23 | CCC(C)ON(C[C@@H](O)[C@H](Cc1ccccc1)NC(=O)OC1CCOC1)S(=O)(=O)c1ccc(OC)cc1 (stereo partly drawn) [Compound 67, (3S)tetrahydro-3-furanyl N-((1S,2R)-1-benzyl-3-sec-butoxy[(4-methoxyphenyl)sulf-onyl]amino-2-hydroxypropyl)carbamate] | < 1 nM | – | 100 to 500 nM | –
24 | CC(C)ON(C[C@@H](O)[C@H](Cc1ccccc1)NC(=O)OC(C)(C)C)S(=O)(=O)c1cccc(N)c1 [Compound 1] | 10 to 100 nM | – | > 1000 nM | –
25 | COc1ccc(S(=O)(=O)N(C[C@@H](O)[C@H](Cc2ccccc2)NC(=O)c2cccc(O)c2C)OC2CCOCC2)cc1 [Compound 75, N-(1S,2R)-1-benzyl-2-hydroxy-3-[[(4-methoxyphenyl)sulfonyl](tetrahydro-2H-pyran-4-yloxy)amino]propyl-3-hydroxy-2-methylbenzamide] | < 1 nM | – | > 500 nM | –
